Assay results as given in ChEMBL document CHEMBL1158226, “Comparative study of the vasodilatory effects of three quinazoline alkaloids isolated from Evodia rutaecarpa” (J Nat Prod, 1996).
Activity calls are given as the source filed them. The rule behind the calls is not given here.

Columns and labels:
Aorta [1] = test: Vasodilatory activity in Sprague-Dawley rat endothelium-denuded thoracic aortic ring assessed as inhibition of phenylephrine-induced contraction at 0.1 to 100 uM; format: functional
Aorta [2] = test: Vasodilatory activity in Sprague-Dawley rat endothelium-intact thoracic aortic ring assessed as inhibition of phenylephrine-induced contraction at 100 uM; format: functional; design: scale not given: the % may be the effect or the level left
Aorta [3] = test: Vasodilatory activity in endothelium-denuded Sprague-Dawley rat thoracic aortic ring assessed as inhibition of phenylephrine-induced contraction preincubated with TEA for 1 hr; format: functional, tissue-based
Aorta [4] = test: Vasodilatory activity in Sprague-Dawley rat endothelium-denuded thoracic aortic ring assessed as inhibition of phenylephrine-induced contraction; format: functional, tissue-based
Aorta [5] = test: Vasodilatory activity in Sprague-Dawley rat endothelium-intact thoracic aortic ring assessed as inhibition of phenylephrine-induced contraction; format: functional, tissue-based
Aorta [6] = test: Vasodilatory activity in Sprague-Dawley rat endothelium-intact thoracic aortic ring assessed as inhibition of phenylephrine-induced contraction at 0.1 to 100 uM; format: functional
[7] = Binding affinity to DHP binding site of L-type calcium channel by radioligand binding assay
Aorta [8] = test: Vasodilatory activity in endothelium-denuded Sprague-Dawley rat thoracic aortic ring assessed as inhibition of phenylephrine-induced contraction preincubated with L-NAME for 10 mins; format: functional, tissue-based
[9] = Antagonist activity at 5-HT receptor in Sprague-Dawley rat endothelium denuded thoracic aorta assessed as inhibition of 5HT-induced contraction; format: functional, tissue-based
Aorta [10] = test: Vasodilatory activity in Sprague-Dawley rat thoracic aortic ring assessed as inhibition of potassium chloride-induced contraction; format: functional, tissue-based
Aorta [11] = test: Vasodilatory activity in endothelium-denuded Sprague-Dawley rat thoracic aortic ring assessed as inhibition of phenylephrine-induced contraction in absence of L-NAME; format: functional, tissue-based
[12] = Antagonist activity at alpha-adrenoceptor in Sprague-Dawley rat endothelium denuded thoracic aorta assessed as inhibition of phenylephrine-induced contraction; format: functional, tissue-based
[13] = Binding affinity to DHP binding site of L-type calcium channel at > 100 uM by radioligand binding assay
[14] = biological target: T1, Adrenergic receptor alpha-1 (Rattus norvegicus, UniProt P15823+P23944+P43140); test: Displacement of [3H]prazosin from alpha1 adrenoceptor in rat heart membrane; format: cell membranes
T1 sequence (P15823 whole entry): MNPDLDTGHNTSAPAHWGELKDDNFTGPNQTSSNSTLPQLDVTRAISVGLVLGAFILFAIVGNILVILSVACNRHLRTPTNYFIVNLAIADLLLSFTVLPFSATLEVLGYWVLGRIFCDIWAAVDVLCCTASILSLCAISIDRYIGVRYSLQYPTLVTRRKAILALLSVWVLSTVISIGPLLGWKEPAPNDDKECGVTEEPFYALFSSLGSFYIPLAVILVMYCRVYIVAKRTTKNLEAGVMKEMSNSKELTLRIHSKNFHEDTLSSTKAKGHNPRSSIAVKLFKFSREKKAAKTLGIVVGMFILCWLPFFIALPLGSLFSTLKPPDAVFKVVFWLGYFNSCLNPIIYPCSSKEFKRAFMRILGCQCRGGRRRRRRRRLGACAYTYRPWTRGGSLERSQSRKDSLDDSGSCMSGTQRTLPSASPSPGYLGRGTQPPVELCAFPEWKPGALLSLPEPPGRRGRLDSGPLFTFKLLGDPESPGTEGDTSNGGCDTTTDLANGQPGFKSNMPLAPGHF
T1 sequence (P23944 whole entry): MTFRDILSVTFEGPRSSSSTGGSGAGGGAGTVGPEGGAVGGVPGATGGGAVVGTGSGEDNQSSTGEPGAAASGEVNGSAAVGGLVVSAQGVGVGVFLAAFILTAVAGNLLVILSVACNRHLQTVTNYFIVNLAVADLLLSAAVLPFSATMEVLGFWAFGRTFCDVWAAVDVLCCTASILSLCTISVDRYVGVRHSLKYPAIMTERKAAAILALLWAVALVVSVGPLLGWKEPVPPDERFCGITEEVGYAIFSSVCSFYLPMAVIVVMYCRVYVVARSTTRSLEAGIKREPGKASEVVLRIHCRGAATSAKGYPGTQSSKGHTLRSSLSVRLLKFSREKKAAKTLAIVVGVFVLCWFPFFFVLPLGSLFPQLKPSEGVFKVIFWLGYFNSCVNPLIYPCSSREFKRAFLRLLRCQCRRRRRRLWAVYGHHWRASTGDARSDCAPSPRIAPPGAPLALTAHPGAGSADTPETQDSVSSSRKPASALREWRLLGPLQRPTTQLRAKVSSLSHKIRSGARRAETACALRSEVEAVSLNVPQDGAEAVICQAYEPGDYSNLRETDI
T1 sequence (P43140 whole entry): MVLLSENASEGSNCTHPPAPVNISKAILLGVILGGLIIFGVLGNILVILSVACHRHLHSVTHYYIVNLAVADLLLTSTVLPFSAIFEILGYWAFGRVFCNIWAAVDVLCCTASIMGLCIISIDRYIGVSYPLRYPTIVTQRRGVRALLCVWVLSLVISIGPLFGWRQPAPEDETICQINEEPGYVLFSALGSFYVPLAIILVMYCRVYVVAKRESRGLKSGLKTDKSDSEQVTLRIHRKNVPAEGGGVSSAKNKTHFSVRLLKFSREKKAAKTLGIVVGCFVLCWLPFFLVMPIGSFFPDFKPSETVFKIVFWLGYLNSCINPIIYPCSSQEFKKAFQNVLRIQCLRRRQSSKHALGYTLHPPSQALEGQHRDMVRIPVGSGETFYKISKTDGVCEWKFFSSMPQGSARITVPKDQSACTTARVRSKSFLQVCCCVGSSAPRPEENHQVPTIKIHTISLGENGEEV

Row | EC50 (Aorta [4]) | EC50 (Aorta [5]) | Activity [7] | EC50 (Aorta [8]) | EC50 (Aorta [11]) | Activity [13] | Ki [14] | SMILES | Emax (Aorta [1]) | Activity (Aorta [2]) | Activity (Aorta [3]) | Emax (Aorta [6]) | pA2 [9] | Activity (Aorta [10]) | pA2 [12]
1 | 1750 nM | 1050 nM | inactive | – | – | – | – | O=c1c2ccccc2nc2n1CCc1c-2[nH]c2ccccc12 [RUTAECARPINE] | 23% | 72% | Active | 96% | – | – | –
2 | 8140 nM | 930 nM | inactive | 2920 nM | – | – | – | CN1c2ccccc2C(=O)N2CCc3c([nH]c4ccccc34)[C@@H]21 [EVODIAMINE] | 49.8% | – | Active | 100% | 6.25 | Active | –
3 | 7780 nM | 1640 nM | – | 5830 nM | 1600 nM | Active | 2400 nM | C[n+]1c2n(c(=O)c3ccccc31)CCc1c-2[nH]c2ccccc12 [DEHYDROEVODIAMINE] | 100% | – | Active | 100% | – | – | 6.89
